Experimental data from US7435820B2, “Substituted tetrahydro-1H-pyrazolo [3,4-c]pyridines compositions comprising them, and use” (Aventis Pharma S.A., priority 2003, dated 2008).
Where two headings read alike, the source gives them in different places.

Assays:
human KDR enzyme = biological target: T1, human KDR enzyme (Homo sapiens, UniProt P35968); assay: KDR kinase inhibition: phosphorylation of PLCγ SH2-SH3 substrate by KDR enzyme, 33P-ATP scintillation plate; assay type: biochemical
T1 construct: The cytoplasmic domain of the human KDR enzyme was cloned in GST fusion form; GST; made in house; host or cells: SF21 insect cells (baculovirus, pFastBac)
T1 sequence (P35968 786-1356 limits assumed): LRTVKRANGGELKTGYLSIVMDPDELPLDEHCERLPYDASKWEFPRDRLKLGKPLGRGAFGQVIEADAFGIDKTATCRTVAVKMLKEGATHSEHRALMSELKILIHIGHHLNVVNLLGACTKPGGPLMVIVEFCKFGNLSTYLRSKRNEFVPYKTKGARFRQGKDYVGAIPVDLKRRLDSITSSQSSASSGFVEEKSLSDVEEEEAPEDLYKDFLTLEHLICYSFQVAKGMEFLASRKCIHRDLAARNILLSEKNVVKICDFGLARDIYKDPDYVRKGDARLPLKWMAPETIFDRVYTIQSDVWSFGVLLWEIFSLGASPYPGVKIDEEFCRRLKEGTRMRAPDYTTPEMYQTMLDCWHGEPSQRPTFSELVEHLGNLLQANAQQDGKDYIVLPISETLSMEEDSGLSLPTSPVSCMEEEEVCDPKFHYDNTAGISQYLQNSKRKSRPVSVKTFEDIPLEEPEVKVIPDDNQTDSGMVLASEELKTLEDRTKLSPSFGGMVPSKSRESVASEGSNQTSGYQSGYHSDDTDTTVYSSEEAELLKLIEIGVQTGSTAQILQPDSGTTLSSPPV
Description: The inhibitory effect of the compounds is determined in an assay for phosphorylation of substrate by the KDR enzyme in vitro using a scintillation technique (96-well plate, NEN).
The cytoplasmic domain of the human KDR enzyme was cloned in GST fusion form into the baculovirus expression vector pFastBac. The protein was expressed in SF21 cells and purified to approximately 60% homogeneity. The KDR kinase activity is measured in 20 mM MOPS, 10 mM MgCl2, 10 mM MnCl2, 1 mM DTT, 2.5 mM EGTA, 10 mM b-glycerophosphate, pH=7.2, in the presence of 10 mM MgCl2, 100 μM Na3VO4 and 1 mM NaF. 10 μl of the compound are added to 70 μl of kinase buffer containing 100 ng of KDR enzyme at 4° C. The reaction is initiated by adding 20 μl of solution containing 2 μg of substrate (SH2-SH3 fragment of PLCγ expressed in the form of an GST fusion protein), 2 μCi γ ^33P[ATP] and 2 μM cold ATP. After incubation for 1 hour at 37° C., the reaction is stopped by adding 1 volume (100 μl) of 200 mM EDTA. The incubation buffer is removed and the wells are washed three times with 300 μl of PBS. The radioactivity is measured in each well using a Top Count NXT (Packard) radioactivity counter.
The background noise is determined by measuring the radioactivity in four different wells containing the radioactive ATP and the substrate alone.
A total activity control is measured in four different wells containing all the reagents (γ^33P-[ATP], KDR and PLC-γ substrate) but in the absence of compound.
The inhibition of the KDR activity with the compound of the invention is expressed as percentage inhibition of the control activity determined in the absence of compound.
The compound SU5614 (Calbiochem) (1 μM) is included in each plate as inhibition control.

human Tie2 = biological target: T2, human Tie2 (Homo sapiens, UniProt Q02763); assay: Tie2 kinase inhibition: phosphorylation of GST-PLC (SH2-SH3 fragments) by GST-Tie2, 33P-ATP flashplate; assay type: biochemical
T2 construct: human Tie2 corresponding to amino acids 776-1124 of the intracellular domain was generated by PCR; made in house; host or cells: baculovirus expression system (vector pFastBacGT)
T2 sequence (Q02763 776-1124): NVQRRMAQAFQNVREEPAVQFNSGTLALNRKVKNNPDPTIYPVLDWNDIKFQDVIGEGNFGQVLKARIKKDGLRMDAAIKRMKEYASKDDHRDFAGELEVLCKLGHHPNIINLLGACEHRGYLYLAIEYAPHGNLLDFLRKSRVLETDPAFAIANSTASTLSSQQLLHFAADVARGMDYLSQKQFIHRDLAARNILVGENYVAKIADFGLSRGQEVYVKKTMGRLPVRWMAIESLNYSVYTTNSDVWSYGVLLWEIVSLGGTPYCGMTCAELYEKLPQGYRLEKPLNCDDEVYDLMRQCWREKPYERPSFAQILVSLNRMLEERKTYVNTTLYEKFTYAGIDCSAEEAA
Description: The coding sequence of human Tie2 corresponding to amino acids 776-1124 of the intracellular domain was generated by PCR using the cDNA isolated from human placenta as model. This sequence was introduced into a baculovirus expression vector pFastBacGT in the form of a GST fusion protein.
The inhibitory effect of the molecules is determined in an assay for phosphorylation of PLC by Tie2 in the presence of GST-Tie2 purified to approximately 80% homogeneity. The substrate is made up of the SH2-SH3 fragments of PLC, the latter being expressed in the form of a GST fusion protein.
The kinase activity of Tie2 is measured in a 20 mM MOPS buffer, pH 7.2, containing 10 mM MgCl2, 10 mM MnCl2, 1 mM DTT and 10 mM of glycerophosphate. A reaction mixture made up of 70 μl of kinase buffer containing 100 ng of GST-Tie2 enzyme per well is placed in a flashplate 96-well plate kept on ice. 10 μl of the molecule to be tested, diluted in DMSO, at a concentration of at most 10% are then added. For a given concentration, each measurement is carried out in quadruplicate. The reaction is initiated by adding 20 μl of solution containing 2 μg of GST-PLC, 2 μM of cold ATP and 1 μCi of ^33P[ATP]. After incubation for 1 hour at 37° C., the reaction is stopped by adding 1 volume (100 μl) of 200 mM EDTA. After removal of the incubation buffer, the wells are washed three times with 300 μl of PBS. The radioactivity is measured on a Wallac MicroBeta 1450.
The inhibition of the Tie2 activity is calculated and expressed as percentage inhibition with respect to the control activity determined in the absence of compound.

[1] = Assay 1, read-out: KDR % Inhib at 10 μM Assay 1
[2] = Assay 2, read-out: KDR % Inhib at 10 μM Assay 2
[3] = Assay 1, read-out: Tie2 % Inhib at 10 μM (FRX) Assay 1
[4] = Assay 2, read-out: Tie2 % Inhib at 10 μM (FRX) Assay 2

Structure (SMILES) | inhibition at 10 µM (human KDR enzyme; read-out: KDR % Inhib. 10 μM) | inhibition at 10 µM (human Tie2; read-out: Tie2 % Inhib. 10 μM) | inhibition at 10 µM (human KDR enzyme; [1]) | inhibition at 10 µM (human KDR enzyme; [2]) | inhibition at 10 µM (human Tie2; [3]) | inhibition at 10 µM (human Tie2; [4])
Cc1cc2nc(-c3[nH]nc4c3CCN(CCC(C)C)C4)[nH]c2cc1C [Chemistry 17] | -2.9% | 50.7% |  |  |  | 
Cc1cc2nc(-c3[nH]nc4c3CCN(S(=O)(=O)Cc3ccc(F)cc3)C4)[nH]c2cc1C [Chemistry 33] | 57.7% | 95.9% |  |  |  | 
Cc1cc2nc(-c3[nH]nc4c3CCN(S(=O)(=O)c3cccc(Cl)c3Cl)C4)[nH]c2cc1C [Chemistry 25] | 31.9% | 89.1% |  |  |  | 
Cc1cc2nc(-c3[nH]nc4c3CCN(C(=O)c3ccccc3)C4)[nH]c2cc1C [Chemistry 41] | 72.5% | 86.3% |  |  |  | 
Cc1cc2nc(-c3[nH]nc4c3CCN(C(=O)Nc3ccc(Cl)cc3)C4)[nH]c2cc1C [Chemistry 63] | -0.3% | 23.8% |  |  |  | 
Cc1cc2nc(-c3[nH]nc4c3CCN(C(=O)Cc3ccccc3)C4)[nH]c2cc1C [Chemistry 43] | 10.9% | 84.4% |  |  |  | 
Cc1cc2nc(-c3[nH]nc4c3CCN(C(=O)c3cccc(Cl)c3Cl)C4)[nH]c2cc1C [Chemistry 42] | 52.6% | 97.4% |  |  |  | 
Cc1cc2nc(-c3[nH]nc4c3CCN(CCc3ccccc3)C4)[nH]c2cc1C [Chemistry 9] | 15.4% | 56.7% |  |  |  | 
Cc1ccc(S(=O)(=O)N2CCc3c(n[nH]c3-c3nc4cc(C)c(C)cc4[nH]3)C2)cc1 [Chemistry 35] | 27.4% | 88.8% |  |  |  | 
COc1ccc(S(=O)(=O)N2CCc3c(n[nH]c3-c3nc4cc(C)c(C)cc4[nH]3)C2)cc1 [Chemistry 34] | 18.1% | 84.7% |  |  |  | 
Cc1cc2nc(-c3[nH]nc4c3CCN(C(=O)Nc3ccccc3Cl)C4)[nH]c2cc1C [Chemistry 61] | 12.7% | 3.75% |  |  |  | 
Cc1cc2nc(-c3[nH]nc4c3CCN(Cc3cccs3)C4)[nH]c2cc1C [Chemistry 13] | 84.5% | 41.5% |  |  |  | 
Cc1cc2nc(-c3[nH]nc4c3CCN(Cc3ccccc3)C4)[nH]c2cc1C [Chemistry 8] | 85.5% | 64.3% |  |  |  | 
Cc1cc2nc(-c3[nH]nc4c3CCN(Cc3cccc(Cl)c3Cl)C4)[nH]c2cc1C [Chemistry 10] | 79.5% | 83.9% |  |  |  | 
Cc1cc2nc(-c3[nH]nc4c3CCN(C(=O)c3ccccc3Nc3cccc(C(F)(F)F)c3)C4)[nH]c2cc1C [Example P-31378-112-4] |  |  | 56.2% | 50.1% | 83.1% | 87.2%
Cc1cc2nc(-c3[nH]nc4c3CCN(Cc3ccco3)C4)[nH]c2cc1C [Chemistry 11] | 70.3% | 66.1% |  |  |  | 
Cc1cc2nc(-c3[nH]nc4c3CCN(CC(C)(C)C)C4)[nH]c2cc1C [Chemistry 15] | 39.3% | 69.4% |  |  |  | 
Cc1cc2nc(-c3[nH]nc4c3CCN(C(=O)C(C)C)C4)[nH]c2cc1C [Chemistry 40] | 14.4% | 83.4% |  |  |  | 
Cc1cc2nc(-c3[nH]nc4c3CCN(C(=O)c3ccccc3Oc3ccccc3)C4)[nH]c2cc1C [Example P-31378-112-5] |  |  | 94.7% | 95.4% | 87.1% | 86.4%
Cc1cc2nc(-c3[nH]nc4c3CCN(S(=O)(=O)CC(F)(F)F)C4)[nH]c2cc1C [Chemistry 27] | 22.9% | 65.4% |  |  |  | 
CCCCN1CCc2c(n[nH]c2-c2nc3cc(C)c(C)cc3[nH]2)C1 [Chemistry 20] | 1.65% | 47.6% |  |  |  | 
Cc1cc2nc(-c3[nH]nc4c3CCN(C(=O)CCc3ccccc3)C4)[nH]c2cc1C [Chemistry 50] | 74.8% | 82.4% |  |  |  | 
